According to patent US9902736B2, “1-oxo/acylation-14-acylated oridonin derivative, preparation method therefor and application thereof” (HANGZHOU BENSHENG PHARMACEUTICAL CO., LTD., priority 2012, dated 2018):
Values after ≈ are worked out from the molar mass of the structure shown.

Legend:
[1] = system: K562/ADR; assay: Leukemia cell growth inhibition, MTT, 72 h; type: cell-based; details: Homo sapiens
Excerpt: (§1) Leukemia cell lines: leukemia cell lines: K562/adr (drug-resistant, chronic myeloid leukemia, CML), NB4 (acute promyelocytic leukemia, AML), Kasumi-1 (acute myeloid leukemia M2 type, AML-M2), Jurkat (acute lymphoblastic leukemia, ALL), all of which were donated by Cancer Research Institute of Zhejiang University, China; and H9 (acute lymphoblastic leukemia, ALL), which was purchased from China Center for Type Culture Collection.
(§2) 6000 well-growing leukemia cells were obtained and inoculated into wells of a 96-well cell culture plate. […] On the next day, the 1-oxo/acylated-14-acylated oridonin derivatives of different concentrations were added and mixed uniformly. The plate was placed in a carbon dioxide cell incubator (5% CO2) at 37° C. and was incubated for 72 hours. Then the viable cell concentration was determined by MTT method.

[2] = system: Kasumi-1; assay: Leukemia cell growth inhibition, MTT, 72 h; type: cell-based; details: Homo sapiens
Excerpt: as §1, §2

[3] = system: H9; assay: Leukemia cell growth inhibition, MTT, 72 h; type: cell-based, human; details: Homo sapiens, H9; 72 h, MTT
Excerpt: as §1, §2

[4] = system: Jurkat; assay: Leukemia cell growth inhibition, MTT, 72 h; type: cell-based, human; details: Homo sapiens, Jurkat; 72 h, MTT
Excerpt: as §1, §2

[5] = system: NB4; assay: Leukemia cell growth inhibition, MTT, 72 h; type: cell-based, human; details: Homo sapiens, NB-4; 72 h, MTT
Excerpt: as §1, §2

[6] = system: RPMI 8226; assay: Multiple myeloma cell growth inhibition, MTT, 72 h; type: cell-based; details: Homo sapiens
Experimental: Multiple myeloma cell lines: RPMI8226 (multiple myeloma), purchased from Fuxiang Bio-tech Co. Ltd., Shanghai, China.
6000 well-growing cells were obtained and inoculated into wells of a 96-well cell culture plate. […] On the next day, the 1-oxo/acylated-14-acylated oridonin derivatives of different concentrations were added and mixed uniformly. The plate was placed in a carbon dioxide cell incubator (5% CO2) at 37° C. and incubated for 72 hours. Then the viable cell concentration was determined by MTT method.

[7] = system: CNE; assay: Solid tumor cell growth inhibition, MTT, 72 h; type: cell-based, human; details: Homo sapiens, CNE; 72 h, MTT
Experimental: (§3) 6000 well-growing human solid tumor cells were obtained and inoculated into wells of a 96-well cell culture plate. The culture medium was DMEM High Glucose cell culture medium containing 10% fetal bovine serum. The plate was placed in a carbon dioxide cell incubator (5% CO2) at 37° C. and incubated for 24 hours. After added with 1-oxo/acylated-14-acylated oridonin derivatives of different concentration and mixed uniformly, the plate was placed in a carbon dioxide cell incubator (5% CO2) at 37° C. and incubated for 72 hours. Then the viable cell concentration was determined by MTT method.

[8] = system: Hela; assay: Solid tumor cell growth inhibition, MTT, 72 h; type: cell-based, human; details: Homo sapiens, HeLa; 72 h, MTT
Experimental: as §3

[9] = system: Hep-2; assay: Solid tumor cell growth inhibition, MTT, 72 h; type: cell-based, human; details: for IC50 / IC90: Homo sapiens, HEp-2, 72 h, MTT
Experimental: as §3

[10] = system: MGC-803; assay: Solid tumor cell growth inhibition, MTT, 72 h; type: cell-based, human; details: for IC50 / IC90: Homo sapiens, MGC-803, 72 h, MTT
Experimental: as §3

[11] = system: A549; assay: Solid tumor cell growth inhibition, MTT, 72 h; type: cell-based; details: Homo sapiens
Experimental: as §3

[12] = system: Becap-37; assay: Solid tumor cell growth inhibition, MTT, 72 h; type: cell-based; details: Homo sapiens
Experimental: as §3

[13] = system: CaEs-17; assay: Solid tumor cell growth inhibition, MTT, 72 h; type: cell-based; details: Homo sapiens, CaEs17
Experimental: as §3

[14] = system: Hep G2; assay: Solid tumor cell growth inhibition, MTT, 72 h; type: cell-based; details: Homo sapiens, HepG2
Experimental: as §3

[15] = system: MG-63; assay: Solid tumor cell growth inhibition, MTT, 72 h; type: cell-based; details: Homo sapiens
Experimental: as §3

[16] = system: PANC-1; assay: Solid tumor cell growth inhibition, MTT, 72 h; type: cell-based; details: Homo sapiens
Experimental: as §3

[17] = system: PC-3; assay: Solid tumor cell growth inhibition, MTT, 72 h; type: cell-based; details: Homo sapiens
Experimental: as §3

[18] = system: RKO; assay: Solid tumor cell growth inhibition, MTT, 72 h; type: cell-based; details: Homo sapiens
Experimental: as §3

[19] = system: SK-OV-3; assay: Solid tumor cell growth inhibition, MTT, 72 h; type: cell-based; details: Homo sapiens, SK-OV-3, 72 h, MTT; for IC50: read-out: IC50 SK-OV-3; for IC90: read-out: IC90 SK-OV-3
Experimental: as §3

[20] = system: U87-MG; assay: Solid tumor cell growth inhibition, MTT, 72 h; type: cell-based; details: Homo sapiens, U-87 MG
Experimental: as §3

SMILES: C=C1C(=O)[C@]23[C@H](OC(=O)C4CC4)[C@H]1CC[C@H]2[C@@]12CO[C@@]3(O)[C@@H](O)[C@@H]1C(C)(C)CCC2=O [BS-OR-017]
- IC50 [1]: 0.52 µg/mL (≈ 1.21 µM)
- IC90 [1]: 1.9 µg/mL (≈ 4.41 µM)
- IC50 [2]: 0.69 µg/mL (≈ 1.6 µM)
- IC90 [2]: 1.7 µg/mL (≈ 3.95 µM)
- IC50 [3]: 0.53 µg/mL (≈ 1.23 µM)
- IC90 [3]: 0.98 µg/mL (≈ 2.28 µM)
- IC50 [4]: 0.92 µg/mL (≈ 2.14 µM)
- IC90 [4]: 5.63 µg/mL (≈ 13.1 µM)
- IC50 [5]: 0.14 µg/mL (≈ 0.325 µM)
- IC90 [5]: 0.82 µg/mL (≈ 1.9 µM)
- IC50 [6]: 0.5 µg/mL (≈ 1.16 µM)
- IC90 [6]: 1.88 µg/mL (≈ 4.37 µM)
- IC50 [7]: 1.13 µg/mL (≈ 2.62 µM)
- IC90 [7]: 4.96 µg/mL (≈ 11.5 µM)
- IC50 [8]: 1.35 µg/mL (≈ 3.14 µM)
- IC90 [8]: 3.86 µg/mL (≈ 8.97 µM)
- IC50 [9]: 1.62 µg/mL (≈ 3.76 µM)
- IC90 [9]: 6.93 µg/mL (≈ 16.1 µM)
- IC50 [10]: 0.91 µg/mL (≈ 2.11 µM)
- IC90 [10]: 4.16 µg/mL (≈ 9.66 µM)
- IC50 [11]: 2.93 µg/mL (≈ 6.81 µM)
- IC90 [11]: 6.29 µg/mL (≈ 14.6 µM)
- IC50 [12]: 1.13 µg/mL (≈ 2.62 µM)
- IC90 [12]: 4.58 µg/mL (≈ 10.6 µM)
- IC50 [13]: 1.32 µg/mL (≈ 3.07 µM)
- IC90 [13]: 5.89 µg/mL (≈ 13.7 µM)
- IC50 [14]: 1.61 µg/mL (≈ 3.74 µM)
- IC90 [14]: 8.04 µg/mL (≈ 18.7 µM)
- IC50 [15]: 0.47 µg/mL (≈ 1.09 µM)
- IC90 [15]: 1.8 µg/mL (≈ 4.18 µM)
- IC50 [16]: 1.96 µg/mL (≈ 4.55 µM)
- IC90 [16]: 5.76 µg/mL (≈ 13.4 µM)
- IC50 [17]: 1.99 µg/mL (≈ 4.62 µM)
- IC90 [17]: 3.92 µg/mL (≈ 9.11 µM)
- IC50 [18]: 0.6 µg/mL (≈ 1.39 µM)
- IC90 [18]: 1.91 µg/mL (≈ 4.44 µM)
- IC50 [19]: 1.99 µg/mL (≈ 4.62 µM)
- IC90 [19]: 3.92 µg/mL (≈ 9.11 µM)
- IC50 [20]: 1.24 µg/mL (≈ 2.88 µM)
- IC90 [20]: 3.64 µg/mL (≈ 8.46 µM)

SMILES: C=C1C(=O)[C@]23[C@H](OC(=O)c4ccc(OC)cc4)[C@H]1CC[C@H]2[C@@]12CO[C@@]3(O)[C@@H](O)[C@@H]1C(C)(C)CCC2OC(C)=O (stereo partly shown) [BS-OR-091]
- IC50 [1]: 0.45 µg/mL (≈ 0.832 µM)
- IC90 [1]: 1.72 µg/mL (≈ 3.18 µM)
- IC50 [2]: 0.52 µg/mL (≈ 0.962 µM)
- IC90 [2]: 1.22 µg/mL (≈ 2.26 µM)
- IC50 [3]: 0.14 µg/mL (≈ 0.259 µM)
- IC90 [3]: 0.46 µg/mL (≈ 0.851 µM)
- IC50 [4]: 0.55 µg/mL (≈ 1.02 µM)
- IC90 [4]: 2.31 µg/mL (≈ 4.27 µM)
- IC50 [5]: 0.13 µg/mL (≈ 0.24 µM)
- IC90 [5]: 0.73 µg/mL (≈ 1.35 µM)
- IC50 [6]: 0.37 µg/mL (≈ 0.684 µM)
- IC90 [6]: 1.8 µg/mL (≈ 3.33 µM)
- IC50 [7]: 1.18 µg/mL (≈ 2.18 µM)
- IC90 [7]: 4.52 µg/mL (≈ 8.36 µM)
- IC50 [8]: 1.28 µg/mL (≈ 2.37 µM)
- IC90 [8]: 3.51 µg/mL (≈ 6.49 µM)
- IC50 [9]: 0.96 µg/mL (≈ 1.78 µM)
- IC90 [9]: 6.65 µg/mL (≈ 12.3 µM)
- anti-Hep-2 activity increased ([9]; in comparison with oridonin): ~5 fold
- IC50 [10]: 0.59 µg/mL (≈ 1.09 µM)
- IC90 [10]: 5.7 µg/mL (≈ 10.5 µM)
- anti-MGC-803 activity increased ([10]; in comparison with oridonin): ~10 fold
- IC50 [11]: 2.38 µg/mL (≈ 4.4 µM)
- IC90 [11]: 7.54 µg/mL (≈ 13.9 µM)
- IC50 [12]: 1.26 µg/mL (≈ 2.33 µM)
- IC90 [12]: 2.48 µg/mL (≈ 4.59 µM)
- IC50 [13]: 0.99 µg/mL (≈ 1.83 µM)
- IC90 [13]: 4.83 µg/mL (≈ 8.93 µM)
- IC50 [14]: 1.4 µg/mL (≈ 2.59 µM)
- IC90 [14]: 6.28 µg/mL (≈ 11.6 µM)
- IC50 [15]: 0.49 µg/mL (≈ 0.906 µM)
- IC90 [15]: 1.46 µg/mL (≈ 2.7 µM)
- IC50 [16]: 1.69 µg/mL (≈ 3.13 µM)
- IC90 [16]: 5.65 µg/mL (≈ 10.5 µM)
- IC50 [17]: 1.75 µg/mL (≈ 3.24 µM)
- IC90 [17]: 4.71 µg/mL (≈ 8.71 µM)
- IC50 [18]: 0.41 µg/mL (≈ 0.758 µM)
- IC90 [18]: 0.93 µg/mL (≈ 1.72 µM)
- IC50 [19]: 1.75 µg/mL (≈ 3.24 µM)
- IC90 [19]: 4.71 µg/mL (≈ 8.71 µM)
- IC50 [20]: 0.67 µg/mL (≈ 1.24 µM)
- IC90 [20]: 1.98 µg/mL (≈ 3.66 µM)
